Source: patent US20110251238A1, “PPAR AGONIST COMPOSITIONS AND METHODS OF USE” (BIOPHARMED, priority 2008, published 2011)

Experiments:
[1] = tested on: caspases 8; assay: Caspases 8 activation in HL60 cells (IEDT reagent); type: cell-based, human; conditions: 48 hours, 1 μM, 0.1 μM and 0.01 μM
Text: 7223, using standard commercially available diagnostic kits (Calbiochem, USA). Assay reagents used were DEVD for caspases 3/7, […] for caspases 8, and LEHD for caspases 9. Moreover, colchicine was used as reference compound that induces this activity of caspases.

[2] = target: T1, PPARγ (Homo sapiens, UniProt P37231); assay: PPAR in vitro cellular (transactivation) assay in MCF-7 cells; type: cell-based
T1 construct: endogenous in cells; host or cells: MCF-7
T1 sequence (P37231 whole entry): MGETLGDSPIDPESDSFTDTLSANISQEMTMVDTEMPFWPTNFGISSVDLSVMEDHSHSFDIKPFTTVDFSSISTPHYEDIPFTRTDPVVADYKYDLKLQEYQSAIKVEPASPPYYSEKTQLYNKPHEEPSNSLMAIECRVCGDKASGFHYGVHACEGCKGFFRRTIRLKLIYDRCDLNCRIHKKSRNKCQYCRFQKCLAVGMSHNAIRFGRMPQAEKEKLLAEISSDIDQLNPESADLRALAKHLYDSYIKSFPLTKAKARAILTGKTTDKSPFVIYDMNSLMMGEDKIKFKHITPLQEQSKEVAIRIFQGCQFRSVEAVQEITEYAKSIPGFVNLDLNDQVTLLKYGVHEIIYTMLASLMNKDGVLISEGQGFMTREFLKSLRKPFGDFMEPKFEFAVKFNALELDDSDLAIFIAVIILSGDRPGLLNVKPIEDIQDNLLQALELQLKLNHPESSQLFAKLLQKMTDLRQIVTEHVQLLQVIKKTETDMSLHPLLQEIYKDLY
Procedure: Compounds BPM18,708 and BPM19,107 were selected as representative analogues and tested in a PPAR in vitro cellular assay. Thiazolidinediones rosiglitazone and troglitazone were used as reference PPARγ agonists.
For transfection experiments, MCF-7 cells were cultured in six-well plates in 2 ml DMEM:F12 supplemented with 5% FBS. When cells were 50-60% confluent, siRNA duplexes and/or reporter gene constructs were transfected using OligofectAMINE reagent (Invitrogen). According to methods described in previous studies siRNAs were transfected in each well to give a final concentration of 70 nM. Cells were harvested in 48-56 h after transfection by manual scraping in lysis buffer (Promega). Whole cell extracts were frozen in liquid nitrogen for 30 s, vortexed by 30 s, and centrifuged to give lysates cell lysates from this experiment were analyzed for PPARγ protein by Western blot analysis. Relative intensities of the PPARγ protein were compared with a nonspecific band and results of three replicate studies were determined in the various treatment groups.
Whole cell lysates were extracted using Western sampling buffer. Protein samples were heated at 100 C for 5 min, separated on 10% SDS-PAGE and transferred to polyvinylidene difluoride (PVDF) membrane (Amersham Pharmacia Biotech, Piscataway, N.J.). […]

[3] = tested on: KB3 (epitheloid lung cancer) cell lines; assay: Cell growth inhibition (cytotoxicity), MTS assay, KB3 cell line; type: cell-based
Procedure: Cell growth inhibition was determined by the MTS assay; the number of viable cells were proportional to the extent of formazan production in the presence or absence of drugs. […]

[4] = tested on: BxPC3 (pancreatic cancer); assay: Growth inhibition, MTT colorimetric assay, BxPC3; type: cell-based, human; conditions: Homo sapiens, BXPC-3, 72 h; carcinoma; 3 days with drug; means of six values; unit inferred; read-out: IC50 BxPC3
Method in brief: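 Cells were cultured at 37° C with 5% CO2 in the presence of drug for 3 days. Proliferation was read by MTT absorbance at 570 nm. IC50 values are means of six distinct values.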

[5] = tested on: MCF-7 (epithelial breast cancer); assay: Growth inhibition, MTT colorimetric assay, MCF7; type: cell-based; conditions: Homo sapiens, MCF7, 72 h; carcinoma; 3 days with drug; means of six values; unit inferred; read-out: IC50 MCF7
Method in brief: (§1)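 Human tumour cell lines were exposed to compounds for 3 days. Proliferation inhibition was read by MTT colorimetric assay and expressed as IC50. Values are means of six determinations.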

[6] = tested on: Hs683 (human glioma); assay: Growth inhibition, MTT colorimetric assay, HS683; type: cell-based; conditions: Homo sapiens, Hs 683, 72 h; glioma; 3 days with drug; means of six values; unit inferred; read-out: IC50 HS683
Method in brief: as §1

[7] = tested on: T98G (glioblastoma); assay: cells; type: cell-based; conditions: Homo sapiens, T98G, 72 h; glioma; 3 days with drug; means of six values; unit inferred; read-out: IC50 T98G
Method in brief: as §1

[8] = tested on: U138 MG (human glioma); assay: Growth inhibition, MTT colorimetric assay, U138; type: cell-based; conditions: Homo sapiens, U138-MG, 72 h; glioma; 3 days with drug; means of six values; unit inferred; read-out: IC50 U138
Method in brief: (§2)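 MTT colorimetric measurement of proliferation gives the IC50, averaged from six separate values. Drug exposure lasted 3 days.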

[9] = tested on: B16-F10 (mouse melanoma); assay: Growth inhibition, MTT colorimetric assay, B16F10; type: cell-based; conditions: Mus musculus, B16-F10, 72 h; melanoma; 3 days with drug; means of six values; unit inferred; read-out: IC50 B16F10
Method in brief: as §2

With `Oc1ccc(CN(Cc2ccc(C(F)(F)F)cc2)Cc2ccc(O)c3ncccc23)c2cccnc12` [BPM18,708, 5,5′-(4-(trifluoromethyl)benzylazanediyl)bis(methylene)diquinolin-8-ol] the “activation of caspases 8” value [1] was “no effect”, the “PPARγ ligand/agonist activity in transactivation assays” value [2] was “ligands and agonists of PPARγ” and the IC50 ([3]; KB3, Table 3A, MTS assay, triplicate, read-out: KB3 IC50) was 1 nM. The “cytotoxic activity in words” value ([3]; KB3 cell line, structure-cytotoxicity discussion) was “most active analogue”, the IC50 [4] was 4300 nM and the IC50 [5] was 34 nM. For the same compound, the IC50 [6] was 10 nM, the IC50 [7] was 99 nM and the IC50 [8] was 49 nM. It also gave an IC50 [9] of 92 nM.
